Reference: patent publication US11655235B2, “Pyrrolidine and piperidine compounds” (YUHAN CORPORATION, priority 2019, dated 2023)

Columns and labels:
Assay type in all cases: biochemical
recombinant human DPP7 = molecular target: T1, recombinant human DPP7 (Homo sapiens, UniProt Q9UHL4); test: DPP7 inhibition, fluorogenic substrate Lys-Pro-AMC; details: recombinant human DPP7
T1 construct: purchased R&D Systems
In short: (§1)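 Enzyme per reaction: 50 ng DPP9, 20 ng DPP8, 10 ng each DPP7 and PREP. Compounds were serially diluted (8 points, up to 0.5% DMSO) and incubated at 25 °C.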

recombinant human DPP8 = molecular target: T2, recombinant human DPP8 (Homo sapiens, UniProt Q6V1X1); test: DPP8 inhibition, fluorogenic substrate Z-Ala-Pro-AMC; details: recombinant human DPP8
T2 construct: purchased PBS Bioscience
In short: as §1

recombinant human DPP9 = molecular target: T3, recombinant human DPP9 (Homo sapiens, UniProt Q86TI2); test: DPP9 inhibition, fluorogenic substrate H-Gly-Pro-AMC; details: recombinant human DPP9
T3 construct: purchased R&D Systems
In short: as §1

Recombinant human FAP = molecular target: T4, Recombinant human FAP (Homo sapiens, UniProt Q12884); test: FAP FRET assay, FGF21-sequence FRET peptide substrate; details: FRET peptide with human FGF21 sequence, 6 μM, 37° C.
T4 construct: purchased R&D systems
T4 sequence (Q12884 1-760): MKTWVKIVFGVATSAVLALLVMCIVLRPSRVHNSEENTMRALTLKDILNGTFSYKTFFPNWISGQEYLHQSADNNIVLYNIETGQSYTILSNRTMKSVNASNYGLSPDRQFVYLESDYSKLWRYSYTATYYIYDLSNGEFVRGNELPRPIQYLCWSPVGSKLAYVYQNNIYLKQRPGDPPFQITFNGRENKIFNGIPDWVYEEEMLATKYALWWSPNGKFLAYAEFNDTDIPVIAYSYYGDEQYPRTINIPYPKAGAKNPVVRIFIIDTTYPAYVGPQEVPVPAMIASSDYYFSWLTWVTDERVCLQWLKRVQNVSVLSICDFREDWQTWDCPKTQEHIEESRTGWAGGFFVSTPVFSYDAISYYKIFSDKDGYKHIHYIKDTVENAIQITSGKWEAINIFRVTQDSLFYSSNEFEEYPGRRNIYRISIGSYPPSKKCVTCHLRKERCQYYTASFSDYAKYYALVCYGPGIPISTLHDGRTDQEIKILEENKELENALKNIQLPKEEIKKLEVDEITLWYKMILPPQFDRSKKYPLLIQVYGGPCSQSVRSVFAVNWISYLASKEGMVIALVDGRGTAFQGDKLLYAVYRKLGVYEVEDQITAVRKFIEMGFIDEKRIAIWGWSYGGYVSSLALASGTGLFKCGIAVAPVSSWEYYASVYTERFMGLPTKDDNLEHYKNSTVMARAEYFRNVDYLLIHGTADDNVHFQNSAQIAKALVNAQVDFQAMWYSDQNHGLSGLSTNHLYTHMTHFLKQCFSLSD
In short: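 Recombinant human FAP, 10 ng per reaction, in 50 mM HEPES pH 7.2 with 150 mM NaCl, 0.1 mg/ml BSA, 1 mM EDTA; HyLite Fluor 488/QXL 520 FRET peptide of human FGF21 sequence at 6 μM final, ≤0.1% DMSO, 37° C. IC50 from 8-point curves by four-parameter logistic fit.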

DPP4 = DPP4 (Homo sapiens, UniProt P27487); test: DPP4 inhibition, fluorogenic substrate H-Gly-Pro-AMC; set-up: purchased R&D Systems; details: recombinant human DPP4
Sequence of DPP4 (P27487 whole entry): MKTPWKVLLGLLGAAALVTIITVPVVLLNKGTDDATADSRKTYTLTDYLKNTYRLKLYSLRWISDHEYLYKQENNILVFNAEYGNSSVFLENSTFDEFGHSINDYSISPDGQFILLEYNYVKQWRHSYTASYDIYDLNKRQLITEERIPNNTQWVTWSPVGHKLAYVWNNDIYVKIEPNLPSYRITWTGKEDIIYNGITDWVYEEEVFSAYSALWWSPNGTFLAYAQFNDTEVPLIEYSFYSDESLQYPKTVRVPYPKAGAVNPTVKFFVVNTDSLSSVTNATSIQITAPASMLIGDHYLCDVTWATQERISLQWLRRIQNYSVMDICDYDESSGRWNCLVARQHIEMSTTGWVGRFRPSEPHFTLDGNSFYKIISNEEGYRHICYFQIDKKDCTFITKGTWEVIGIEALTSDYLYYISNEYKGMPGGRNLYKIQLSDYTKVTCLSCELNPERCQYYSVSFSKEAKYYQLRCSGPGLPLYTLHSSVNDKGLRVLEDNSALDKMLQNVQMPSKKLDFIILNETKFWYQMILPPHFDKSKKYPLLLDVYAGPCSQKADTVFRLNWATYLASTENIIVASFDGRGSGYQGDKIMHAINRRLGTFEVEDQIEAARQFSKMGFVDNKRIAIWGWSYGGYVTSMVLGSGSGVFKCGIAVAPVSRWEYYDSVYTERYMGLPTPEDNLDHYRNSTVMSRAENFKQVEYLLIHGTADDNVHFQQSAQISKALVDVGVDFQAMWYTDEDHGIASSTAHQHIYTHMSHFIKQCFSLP

T3 sequence (Q86TI2 whole entry): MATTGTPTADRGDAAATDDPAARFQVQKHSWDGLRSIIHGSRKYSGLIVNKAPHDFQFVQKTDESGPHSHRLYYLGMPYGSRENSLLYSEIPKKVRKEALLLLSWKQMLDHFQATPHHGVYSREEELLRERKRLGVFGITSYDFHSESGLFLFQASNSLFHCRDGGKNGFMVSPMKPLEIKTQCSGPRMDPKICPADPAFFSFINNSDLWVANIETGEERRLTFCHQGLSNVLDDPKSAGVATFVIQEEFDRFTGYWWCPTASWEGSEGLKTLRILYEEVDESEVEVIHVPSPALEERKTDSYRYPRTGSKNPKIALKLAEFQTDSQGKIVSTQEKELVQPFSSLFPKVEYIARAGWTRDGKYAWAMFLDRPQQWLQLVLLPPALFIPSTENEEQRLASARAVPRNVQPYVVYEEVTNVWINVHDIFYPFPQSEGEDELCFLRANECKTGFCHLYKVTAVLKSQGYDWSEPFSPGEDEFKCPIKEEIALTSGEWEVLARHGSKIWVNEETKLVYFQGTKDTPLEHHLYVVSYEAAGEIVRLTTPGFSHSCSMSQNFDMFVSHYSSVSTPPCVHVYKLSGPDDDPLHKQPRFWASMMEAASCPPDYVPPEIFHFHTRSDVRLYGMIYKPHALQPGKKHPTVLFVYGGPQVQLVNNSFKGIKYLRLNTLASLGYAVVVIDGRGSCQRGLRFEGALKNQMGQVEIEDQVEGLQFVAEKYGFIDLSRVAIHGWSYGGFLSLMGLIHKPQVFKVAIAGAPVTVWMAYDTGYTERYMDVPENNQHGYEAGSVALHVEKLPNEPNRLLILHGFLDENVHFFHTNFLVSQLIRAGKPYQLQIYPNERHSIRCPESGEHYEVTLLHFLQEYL
T2 sequence (Q6V1X1 whole entry): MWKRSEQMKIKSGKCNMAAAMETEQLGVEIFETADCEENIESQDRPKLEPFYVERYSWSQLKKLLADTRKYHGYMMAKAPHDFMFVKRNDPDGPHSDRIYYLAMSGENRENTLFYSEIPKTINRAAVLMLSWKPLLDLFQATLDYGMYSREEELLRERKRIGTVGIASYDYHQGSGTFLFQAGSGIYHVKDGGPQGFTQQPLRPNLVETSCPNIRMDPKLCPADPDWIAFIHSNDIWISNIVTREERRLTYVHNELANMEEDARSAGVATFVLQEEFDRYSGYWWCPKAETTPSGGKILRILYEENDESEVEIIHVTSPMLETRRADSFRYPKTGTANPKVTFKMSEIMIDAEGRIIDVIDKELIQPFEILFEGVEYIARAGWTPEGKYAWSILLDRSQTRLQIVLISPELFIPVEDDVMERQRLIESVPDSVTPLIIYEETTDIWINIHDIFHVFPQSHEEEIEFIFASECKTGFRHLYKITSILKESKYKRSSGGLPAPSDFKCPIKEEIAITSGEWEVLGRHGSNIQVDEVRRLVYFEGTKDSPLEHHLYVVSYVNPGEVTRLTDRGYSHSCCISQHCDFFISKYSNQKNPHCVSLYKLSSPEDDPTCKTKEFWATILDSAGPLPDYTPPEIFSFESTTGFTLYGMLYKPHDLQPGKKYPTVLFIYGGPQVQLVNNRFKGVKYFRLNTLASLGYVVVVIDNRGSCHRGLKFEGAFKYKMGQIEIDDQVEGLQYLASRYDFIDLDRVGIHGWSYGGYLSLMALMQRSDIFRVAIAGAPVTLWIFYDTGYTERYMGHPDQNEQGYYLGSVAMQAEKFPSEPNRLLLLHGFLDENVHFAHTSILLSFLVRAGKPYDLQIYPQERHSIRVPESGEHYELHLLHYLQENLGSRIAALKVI

| IC50 (recombinant human DPP7) | IC50 (recombinant human DPP8) | IC50 (recombinant human DPP9) | IC50 (Recombinant human FAP) | IC50 (DPP4) | Compound |
| --- | --- | --- | --- | --- | --- |
| 387 nM | 10800 nM | 7480 nM | 3 nM | > 100000 nM | N#C[C@@H]1C[C@H](F)CN1C(=O)CN1CC[C@H](Nc2cccc3ncccc23)C1 [Example 228, (2S,4S)-4-fluoro-1-[2-[(3S)-3-(5-quinolylamino)pyrrolidin-1-yl]acetyl]pyrrolidine-2-carbonitrile] |
| 7150 nM | > 100000 nM | 29000 nM | 1.8 nM | > 10000 nM | N#Cc1cnc2cccc(N[C@H]3CCN(CC(=O)N4CCC[C@H]4C#N)C3)c2c1 [Example 232, 5-[[(3S)-1-[2-oxo-2-[(2S)-2-cyanopyrrolidin-1-yl]ethyl]pyrrolidin-3-yl]amino]quinoline-3-carbonitrile] |
| 1070 nM | 28100 nM | 21200 nM | 0.7 nM | 37800 nM | COc1cnc2cccc(N[C@H]3CCN(CC(=O)N4CCC[C@H]4C#N)C3)c2c1 [Example 233, (2S)-1-[2-[(3S)-3-[(3-methoxy-5-quinolyl)amino]pyrrolidin-1-yl]acetyl]pyrrolidine-2-carbonitrile] |
| 9140 nM | 32700 nM | 31900 nM | 5.6 nM | > 10000 nM | N#C[C@@H]1CCCN1C(=O)CN1CC[C@H](Nc2ccc(F)c3ncccc23)C1 [Example 244, (2S)-1-[2-[(3S)-3-[(8-fluoro-5-quinolyl)amino]pyrrolidin-1-yl]acetyl]pyrrolidine-2-carbonitrile] |
| 3750 nM | > 100000 nM | > 100000 nM | 1.2 nM | > 10000 nM | N#C[C@@H]1CCCN1C(=O)CN1CC[C@H](Nc2ccc(C(F)(F)F)c3ncccc23)C1 [Example 245, (2S)-1-[2-[(3S)-3-[[8-(trifluoromethyl)-5-quinolyl]amino]pyrrolidin-1-yl]acetyl]pyrrolidine-2-carbonitrile] |
| 1850 nM | 5100 nM | 7360 nM | 1 nM | 2410 nM | N#C[C@@H]1C[C@H](F)CN1C(=O)CN1CC[C@H](Nc2cccc3ncc(F)cc23)C1 [Example 255, (2S,4S)-4-fluoro-1-[2-[(3S)-3-[(3-fluoro-5-quinolyl)amino]pyrrolidin-1-yl]acetyl]pyrrolidine-2-carbonitrile] |
| 554 nM | 3570 nM | 3830 nM | 1.9 nM | 792 nM | COc1ccc(N[C@H]2CCN(CC(=O)N3C[C@@H](F)C[C@H]3C#N)C2)c2cccnc12 [Example 263, (2S,4S)-4-fluoro-1-[2-[(3S)-3-[(8-methoxy-5-quinolyl)amino]pyrrolidin-1-yl]acetyl]pyrrolidine-2-carbonitrile] |
| 1070 nM | > 10000 nM | 4380 nM | 1.2 nM | 1310 nM | N#C[C@@H]1C[C@H](F)CN1C(=O)CN1CC[C@H](Nc2ccc(OC(F)(F)F)c3ncccc23)C1 [Example 266, (2S,4S)-4-fluoro-1-[2-[(3S)-3-[[8-(trifluoromethoxy)-5-quinolyl]amino]pyrrolidin-1-yl]acetyl]pyrrolidine-2-carbonitrile] |
| 511 nM | 1110 nM | 877 nM | 0.7 nM | 574 nM | N#C[C@@H]1C[C@H](F)CN1C(=O)CN1CC[C@H](Nc2ccc(OCc3ccccc3)c3ncccc23)C1 [Example 268, (2S,4S)-4-fluoro-1-[2-[(3S)-3-[(8-benzyloxy-5-quinolyl)amino]pyrrolidin-1-yl]acetyl]pyrrolidine-2-carbonitrile] |
| 404 nM |  | 1090 nM | 2.6 nM | 7760 nM | N#C[C@@H]1C[C@H](F)CN1C(=O)CN1CCC(Nc2ccc(C(F)(F)F)c3ncccc23)CC1 [Example 334, (2S,4S)-4-fluoro-1-[2-[4-[[8-(trifluoromethyl)-5-quinolyl]amino]-1-piperidyl]acetyl]pyrrolidine-2-carbonitrile] |
| 1010 nM | 2620 nM | 2960 nM | 5.7 nM | 2660 nM | N#C[C@@H]1C[C@H](F)CN1C(=O)CN1CCC(Nc2ccc(OC(F)(F)F)c3ncccc23)CC1 [Example 347, (2S,4S)-4-fluoro-1-[2-[4-[[8-(trifluoromethoxy)-5-quinolyl]amino]-1-piperidyl]acetyl]pyrrolidine-2-carbonitrile] |
| 612 nM | 2440 nM | 6200 nM | 3.9 nM | 3600 nM | COc1cnc2cccc(NC3CCN(CC(=O)N4C[C@@H](F)C[C@H]4C#N)CC3)c2c1 [Example 348, (2S,4S)-4-fluoro-1-[2-[4-[(3-methoxy-5-quinolyl)amino]-1-piperidyl]acetyl]pyrrolidine-2-carbonitrile] |
| 1990 nM | 2900 nM | 5060 nM | 4 nM | 1890 nM | N#C[C@@H]1C[C@H](F)CN1C(=O)CN1CCC(Nc2cccc3ncc(F)cc23)CC1 [Example 349, (2S,4S)-4-fluoro-1-[2-[4-[(3-fluoro-5-quinolyl)amino]-1-piperidyl]acetyl]pyrrolidine-2-carbonitrile] |
| 2930 nM | > 10000 nM | 9770 nM | 2.5 nM | > 10000 nM | N#C[C@@H]1C[C@H](F)CN1C(=O)CN1CCC(Nc2cccc3cnc(Cl)cc23)CC1 [Example 352, (2S,4S)-1-[2-[4-[(3-chloro-5-isoquinolyl)amino]-1-piperidyl]acetyl]-4-fluoro-pyrrolidine-2-carbonitrile] |
| 846 nM | > 100000 nM | 9860 nM | 2.5 nM | 5250 nM | COc1cc2c(NC3CCN(CC(=O)N4C[C@@H](F)C[C@H]4C#N)CC3)cccc2cn1 [Example 355, (2S,4S)-4-fluoro-1-[2-[4-[(3-methoxy-5-isoquinolyl)amino]-1-piperidyl]acetyl]pyrrolidine-2-carbonitrile] |
| 4730 nM | 10700 nM | 17700 nM | 1.5 nM | > 10000 nM | Cc1ccc2nccc(OC3CCN(CC(=O)N4C[C@@H](F)C[C@H]4C#N)CC3)c2c1 [Example 410, (2S,4S)-4-fluoro-1-[2-[4-[(6-methyl-4-quinolyl)oxy]-1-piperidyl]acetyl]pyrrolidine-2-carbonitrile] |

| Compound | IC50 (recombinant human DPP7) | IC50 (recombinant human DPP8) | IC50 (recombinant human DPP9) | IC50 (Recombinant human FAP) | IC50 (DPP4) |
| --- | --- | --- | --- | --- | --- |
| N#Cc1ccc(N[C@H]2CCN(CC(=O)N3CCC[C@H]3C#N)C2)c2cccnc12 [Example 247, 5-[[(3S)-1-[2-oxo-2-[(2S)-2-cyanopyrrolidin-1-yl]ethyl]pyrrolidin-3-yl]amino]quinoline-8-carbonitrile] | > 50000 nM | > 100000 nM | > 100000 nM | 2 nM | > 10000 nM |
